This note sets out measurements from PubChem BioAssay AID328 (DTP/NCI, 2004).

Molecules are shown by their SMILES. Several values for one entry are separate records, joined by “and”; a condition that tells them apart may be missing. Equal entries are not always repeated. Toxic doses and inconclusive results are not listed.

The test has as its system BDF1 mice, P388 leukemia ip, median survival T/C. Briefly: NCI In Vivo Anticancer Drug Screen. Data for tumor model P388 Leukemia (intraperitoneal) in B6D2F1 (BDF1) mice. The settings on record: endpoint: median survival time, higher = longer survival. The procedure, abridged:
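Steps: implant the tumour, treat one group with compound and another with vehicle, record survival, then divide treated by control.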

[1] abbreviates: dose: 100.0 mg/kg/injection, schedule: Q04DX003 (ip), vehicle: Klucel (hydroxypropylcellulose) (HPC).
Setting [2] is: dose: 200.0 mg/kg/injection, schedule: Q01DX009 (ip), vehicle: saline with Tween-80.
[3] abbreviates: dose: 200.0 mg/kg/injection, schedule: Q04DX003 (ip), vehicle: Klucel (hydroxypropylcellulose) (HPC).
[4] abbreviates: dose: 400.0 mg/kg/injection, schedule: Q01DX009 (ip), vehicle: saline with Tween-80.
Where [5] appears, read: dose: 400.0 mg/kg/injection, schedule: Q04DX003 (ip), vehicle: Klucel (hydroxypropylcellulose) (HPC).
Where [6] appears, read: dose: 50.0 mg/kg/injection, schedule: Q04DX003 (ip), vehicle: saline with Tween-80.
The mark [7] stands for this setting: dose: 100.0 mg/kg/injection, schedule: Q04DX003 (ip), vehicle: saline with Tween-80.
Setting [8] is: dose: 100.0 mg/kg/injection, schedule: Q01DX009 (ip), vehicle: saline with Tween-80.
Where [9] appears, read: dose: 12.5 mg/kg/injection, schedule: Q01DX009 (ip), vehicle: Klucel (hydroxypropylcellulose) (HPC).
[10] abbreviates: dose: 25.0 mg/kg/injection, schedule: Q01DX009 (ip), vehicle: Klucel (hydroxypropylcellulose) (HPC).
Where [11] appears, read: dose: 50.0 mg/kg/injection, schedule: Q01DX009 (ip), vehicle: Klucel (hydroxypropylcellulose) (HPC).
The mark [12] stands for this setting: dose: 50.0 mg/kg/injection, schedule: Q04DX003 (ip), vehicle: Klucel (hydroxypropylcellulose) (HPC).

Regarding `Fc1c(Cl)c(Cl)c(Cl)c(Cl)c1Cl`, the T/C is, setting by setting: (dose: 44.0 mg/kg/injection, schedule: Q01DX009 (ip), vehicle: other) 104 % of control; (dose: 66.0 mg/kg/injection, schedule: Q01DX009 (ip), vehicle: other) 100 % of control; (dose: 100.0 mg/kg/injection, schedule: Q01DX009 (ip), vehicle: other) 95 % of control; under setting [1], 100 % of control; (dose: 150.0 mg/kg/injection, schedule: Q01DX009 (ip), vehicle: other) 91 % of control; under setting [2], 105 % of control. Besides, the T/C by setting is: under setting [3], 90 % of control; under setting [4], 90 % of control; under setting [5], 100 % of control.
Take `CS(=O)(=O)OC[C@H](OS(=O)(=O)O)[C@H](COS(C)(=O)=O)OS(=O)(=O)O`: the T/C reads like this: under setting [6], 110 % of control; under setting [7], 110 % of control; (dose: 200.0 mg/kg/injection, schedule: Q04DX003 (ip), vehicle: saline with Tween-80) 110 % of control.
Consider `COc1cc(C=Nc2cc(Br)cc(Br)c2)ccc1N(CCCl)CCCl`, for which the T/C by setting is: (dose: 18.75 mg/kg/injection, schedule: Q04DX003 (ip), vehicle: other) 204 % of control; (dose: 22.0 mg/kg/injection, schedule: Q04DX003 (ip), vehicle: saline with Tween-80) 200 % of control; (dose: 33.0 mg/kg/injection, schedule: Q04DX003 (ip), vehicle: saline with Tween-80) 222 % of control; (dose: 37.5 mg/kg/injection, schedule: Q04DX003 (ip), vehicle: other) 250 % of control; under setting [6], 218 % of control; (dose: 60.0 mg/kg/injection, schedule: Q04DX003 (ip), vehicle: saline with Tween-80) 272 % of control. The T/C reads like this: (dose: 75.0 mg/kg/injection, schedule: Q04DX003 (ip), vehicle: other) 250 % of control; (dose: 100.0 mg/kg/injection, schedule: Q04DX003 (ip), vehicle: saline sonified) 154 % of control; (dose: 200.0 mg/kg/injection, schedule: Q04DX003 (ip), vehicle: saline sonified) 263 % of control; (dose: 400.0 mg/kg/injection, schedule: Q04DX003 (ip), vehicle: saline sonified) 118 % of control.
On to `Cc1n[nH]c(=S)[nH]c1=S`, for which the T/C reads like this: (dose: 25.0 mg/kg/injection, schedule: Q04DX003 (ip), vehicle: saline with Tween-80) 109 % of control; under setting [6], 100 % of control; under setting [7], 104 % of control.
For `CC(=O)c1ccc(-c2ccccc2)cc1`, the T/C is 100 % of control under setting [8], 91 % of control under setting [2] and 95 % of control under setting [4].
With `O=C1CCCC(=O)C1C(C[N+](=O)[O-])c1ccccc1` (centres undefined), the T/C by setting is: under setting [9], 95 % of control and 100 % of control; under setting [10], 97 % of control and 119 % of control; (dose: 25.0 mg/kg/injection, schedule: Q04DX003 (ip), vehicle: Klucel (hydroxypropylcellulose) (HPC)) 100 % of control; under setting [11], 88 % of control; under setting [12], 104 % of control; (dose: 100.0 mg/kg/injection, schedule: Q01DX009 (ip), vehicle: Klucel (hydroxypropylcellulose) (HPC)) 96 % of control and 110 % of control. Besides, the T/C under setting [1] is 108 % of control.
For the compound `COC(=O)c1ccc(=O)c2nc3/c(=C/O)c(O)cc(=O)c3[nH]c12`, the T/C runs as follows: (dose: 12.5 micrograms/kg/injection, schedule: Q01DX009 (ip), vehicle: Klucel (hydroxypropylcellulose) (HPC)) 101 % of control; (dose: 25.0 micrograms/kg/injection, schedule: Q01DX009 (ip), vehicle: Klucel (hydroxypropylcellulose) (HPC)) 97 % of control; (dose: 50.0 micrograms/kg/injection, schedule: Q01DX009 (ip), vehicle: Klucel (hydroxypropylcellulose) (HPC)) 97 % of control; (dose: 99.0 micrograms/kg/injection, schedule: Q01DX009 (ip), vehicle: saline) 100 % of control; (dose: 150.0 micrograms/kg/injection, schedule: Q01DX009 (ip), vehicle: saline) 109 % of control; (dose: 225.0 micrograms/kg/injection, schedule: Q01DX009 (ip), vehicle: saline) 113 % of control.
For the compound `O=C(O)c1ccc(C(=O)O)c([N+](=O)[O-])c1`, the T/C runs as follows: (dose: 50.0 mg/kg/injection, schedule: Q04DX003 (ip), vehicle: saline) 100 % of control; (dose: 100.0 mg/kg/injection, schedule: Q04DX003 (ip), vehicle: saline) 100 % of control; (dose: 200.0 mg/kg/injection, schedule: Q04DX003 (ip), vehicle: saline) 100 % of control.
Consider `CCCNC(C)(C)C(SS)c1ccc(C(F)(F)F)cc1` (centres undefined), for which the T/C by setting is: (dose: 12.5 mg/kg/injection, schedule: Q04DX003 (ip), vehicle: other) 100 % of control; (dose: 25.0 mg/kg/injection, schedule: Q04DX003 (ip), vehicle: other) 110 % of control; (dose: 50.0 mg/kg/injection, schedule: Q04DX003 (ip), vehicle: other) 105 % of control.
Consider `CC(=O)OCc1c(COC(C)=O)c(-c2ccc(Cl)cc2)n2c1CCC2`, for which the T/C by setting is: under setting [9], 119 % of control; under setting [10], 123 % of control; under setting [11], 98 % of control.
Turning to `O=C1CSc2cc[nH]c21`, the T/C by setting is: under setting [12], 90 % of control; under setting [1], 90 % of control; under setting [3], 104 % of control.
As for `COc1c(C#N)c2c(c(OC)c1OC)-c1ccc(OC)c(=O)cc1[C@@H](NC(C)=O)CC2`, under “dose: 6.25 mg/kg/injection, schedule: Q01DX009 (ip), vehicle: Klucel (hydroxypropylcellulose) (HPC)”, the T/C is 119 % of control.
For `CC(C)(C)C1CCC(C#N)(N=Nc2ccccc2)CC1` (centres undefined), the T/C is 102 % of control (dose: 50.0 mg/kg/injection, schedule: Q01DX005 (ip), vehicle: saline with Tween-80) and 89 % of control (dose: 100.0 mg/kg/injection, schedule: Q01DX005 (ip), vehicle: saline with Tween-80).
`C=C1[C@@H](O)[C@]2(O)OC[C@@]34[C@H]1[C@@H](OC(=O)C(C)CC)C(=O)O[C@@H]3C[C@H]1C(C)=CC(=O)[C@@H](O)[C@]1(C)[C@@H]24` (some centres undefined): the T/C is 184 % of control (dose: 0.5 mg/kg/injection, schedule: Q01DX009 (ip), vehicle: saline with Tween-80); 159 % of control (dose: 1.0 mg/kg/injection, schedule: Q01DX009 (ip), vehicle: saline with Tween-80); 153 % of control (dose: 1.0 mg/kg/injection, schedule: Q01DX009 (ip), vehicle: saline); 178 % of control (dose: 2.0 mg/kg/injection, schedule: Q01DX009 (ip), vehicle: saline with Tween-80); 166 % of control (dose: 4.0 mg/kg/injection, schedule: Q01DX009 (ip), vehicle: saline); 95 % of control (dose: 8.0 mg/kg/injection, schedule: Q01DX009 (ip), vehicle: saline).
On to `C1=NOC2c3ccc4ccccc4c3CCC12` (centres undefined), for which the T/C runs as follows: under setting [3], 87 % of control; under setting [5], 95 % of control.
For the compound `CC[NH-].CC[NH-].[I][Pt+2][I]`, the T/C (dose: 3.12 mg/kg/injection, schedule: Q01DX009 (ip), vehicle: saline) was 190 % of control and the T/C (dose: 6.25 mg/kg/injection, schedule: Q01DX009 (ip), vehicle: saline) is 185 % of control.
For the compound `Clc1ccc2c(c1)nnn2OC1CCCCCC1`, the T/C was 101 % of control (dose: 50.0 mg/kg/injection, schedule: Q01DX009 (ip), vehicle: saline with Tween-80); 97 % of control under setting [8]; 108 % of control under setting [2].
